What was measured:
mouse trachea = assay: Ex vivo trachea culture, cilia beating-derived fluorescent bead movement; conditions: 500 μM ITA or 100 μM ATP
Procedure: Tracheas were harvested from mice and cut longitudinally through the middle of the trachealis muscle to expose the lumen of the trachea. Tracheas were then transferred into HBSS buffer and equilibrated for 30 minutes. With the lumen facing down, trachea tissues were transferred into 2 mL HBSS buffer supplemented with 0.5% methylcellulose, red fluorescent beads, 30 mM HEPES, and the indicated ligand. Bead flow was monitored with the BioTek Cytation 5 cell imaging system. Twenty individual beads were tracked from different fields of view in each condition, and the speed of each bead was calculated by […].

[1] = tested on: primary respiratory epithelial cells from Oxgr1+/+ and Oxgr1–/– mice; assay: Calcium imaging (Fluo-4AM) of primary mouse trachea epithelial cells; assay type: cell-based; conditions: 670 μM ITA or 100 μM ATP
Procedure: For calcium imaging of human primary bronchial epithelial cells, cells were infected with 2 CRISPR lentiviruses targeting OXGR1 and cultured for 2 days before calcium imaging. For calcium imaging of primary mouse cells, freshly isolated mouse tracheas were cut into rings, placed onto collagen-coated dishes, and cultured in DMEM supplemented with 10% FBS. Cells were loaded with 5 μM Fluo-4AM for 30 minutes in HBSS buffer, washed twice, and incubated for another 15 minutes for fully deesterification of Fluo-4AM. Cells loaded with Fluo-4AM were monitored with the BioTek Cytation 5 Cell imaging system every 300 ms for a total of 1.5 minutes after ligand administration. Fluorescence was quantified with ImageJ software (NIH).

human OXGR1 [2] = target: T1, human OXGR1 (Homo sapiens, UniProt Q96P68); assay: Aequorin assay (calcium mobilization) in HEK293 cells overexpressing human OXGR1; assay type: cell-based
Procedure: (§1) Thirty-six hours after transfection, cells were maintained in serum-free medium for 12 hours and then loaded with 5 μM coelenterazine for 3 hours. Cells were trypsinized and resuspended at a density of 5 × 10^5 cells/mL in HBSS supplemented with 10 mM HEPES and 0.5% BSA. Cell suspensions of 100 μL were aliquoted into 96-well plates.

FLAG-tagged OXGR1 = target: T2, FLAG-tagged OXGR1 (Homo sapiens, UniProt Q96P68); assay: Endocytosis assay of FLAG-tagged OXGR1 in HEK293 cells; assay type: cell-based; conditions: WT OXGR1, within 10 minutes of ligand treatment
T2 construct: expressed in transfected cells
Procedure: For endocytosis assays, HEK293 cells stably expressing FLAG-OXGR1 were chilled on ice in DMEM medium supplemented with 30 mM HEPES for 10 minutes. […] Unbound antibody was then washed off with prechilled HBSS buffer. […] After ligand stimulation, cells were fixed and permeabilized. Subcellular localization of FLAG-tagged OXGR1 was detected using FITC-donkey anti-rabbit antibody (Invitrogen, Thermo Fisher Scientific), and nuclei were stained with DAPI (MilliporeSigma). Immunofluorescence images were captured with a Leica SP8 laser-scanning confocal microscope.

human OXGR1 [3] = target: T1, human OXGR1; assay: Fluo-4 assay in HEK293 cells expressing human OXGR1; assay type: cell-based
Procedure: For the Fluo-4AM assay, OXGR1-expressing cells were loaded with 2 μM Fluo-4AM for 30 minutes at 37°C. Excess Fluo-4AM was then washed off with HBSS buffer. After incubation at 37°C for another 10 minutes, cells were transferred onto a 96-well plate.

mouse OXGR1 = target: T3, mouse OXGR1 (Mus musculus, UniProt Q6IYF8); assay: Aequorin assay (calcium mobilization) in HEK293 cells overexpressing mouse OXGR1; assay type: cell-based; conditions: EC50, aequorin assay, mOXGR1 in HEK293 cells
T3 construct: expressed in transfected cells; host or cells: HEK293
T3 sequence (Q6IYF8 whole entry): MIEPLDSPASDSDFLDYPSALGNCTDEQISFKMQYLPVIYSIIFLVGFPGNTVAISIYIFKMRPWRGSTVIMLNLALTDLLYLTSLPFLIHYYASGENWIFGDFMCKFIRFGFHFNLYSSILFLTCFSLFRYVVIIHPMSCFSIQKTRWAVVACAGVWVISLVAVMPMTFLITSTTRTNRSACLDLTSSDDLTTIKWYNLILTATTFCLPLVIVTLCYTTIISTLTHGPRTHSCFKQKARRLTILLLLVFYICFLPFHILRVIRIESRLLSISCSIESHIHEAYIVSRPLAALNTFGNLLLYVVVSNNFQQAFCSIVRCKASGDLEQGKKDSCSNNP
Procedure: as §1

Structure (SMILES)	movement of beads, trachea from Oxgr1+/+ mice (mouse trachea)	movement of beads, trachea from Oxgr1–/– mice (mouse trachea)	calcium mobilization, Oxgr1+/+ cells [1]	calcium mobilization, Oxgr1–/– cells [1]	calcium response (agonist effect) (human OXGR1 [2]; HEK293 cells overexpressing human OXGR1, aequorin)	effect on α-KG– or ITA-triggered intracellular Ca2+ release (human OXGR1 [2]; addition of LTE4, OXGR1-expressing HEK293 cells)	endocytosis of OXGR1 (FLAG-tagged OXGR1)	EC50 (human OXGR1 [3])	EC50 (human OXGR1 [2])	EC50 (mouse OXGR1)
Nc1ncnc2c1ncn2[C@@H]1O[C@H](COP(=O)(O)OP(=O)(O)OP(=O)(O)O)[C@@H](O)[C@H]1O [ATP, reference compound]	comparable speed of bead movement	comparable speed of bead movement	normal calcium release	normal calcium release						
CCCCC/C=C\C\C=C/C=C/C=C/[C@@H](SC[C@H](N)C(=O)O)[C@@H](O)CCCC(=O)O [LTE4, Leukotriene E4, reference compound]					failed to show any agonizing effect	did not prevent, and even moderately enhanced	failed to show any agonizing effect			
O=C(O)CCC(=O)C(=O)O [α-KG, α-ketoglutaric acid, reference compound]							rapid endocytosis of OXGR1 was triggered	161 ± 34.7 µM	248 ± 58.6 µM	241 ± 61.1 µM
